Tests used:
[1] = test system: Rat brain slices; test: Rat brain slice ischemia/reoxygenation EPSP system; format: cell-based; conditions: 50 μM C7
Protocol: A widely used assay to determine the therapeutic potential of molecules in brain ischemia (stroke) consists of evaluating their ability to prevent irreversible damage induced by an anoxic episode in brain slices maintained under physiological conditions. Rat brain slices were maintained at 35° C. in an interface chamber in an artificial cerebrospinal fluid containing: 124 mM NaCl, 3 mM KCl, 1.25 mM KH2PO4, 3 mM CaCl, 1 mM MgCl2, 26 mM NaHCO3, 10 mM D-glucose, and 2 mM L-ascorbate, continuously gassed with a mixture of O2:CO2 (95:5). The atmosphere of the chamber was also continuously gased with the mixture of O2:CO2 (95:5), except during the-anoxic episode when it was replaced by N2. Axons were electrically stimulated and the evoked excitatory post-synaptic potentials (EPSPs) were recorded using microelectrodes.
The extent of permanent damage can be quantified by measuring both the amplitude (in mV) and the initial slope (in mV/msec) of the EPSP.
After 5 minutes of baseline recording, O2 was replaced by N2 for an average of 5 minutes. O2 was then reintroduced and recording was continued for another 50 minutes. […] In contrast, recovery in untreated brain slices was only about 40% of pre-ischemia levels.
As an additional assessment of efficacy, the percentage of viable slices following repeated ischemic episodes was evaluated. […]

[2] = test system: isolated iron-overloaded rat hearts; test: Isolated iron-overloaded rat hearts submitted to ischemia and reperfusion (function and electron microscopy)
Protocol: Rats received an intramuscular injection of 0.25 ml of an iron-dextran solution (100 g iron hydroxide, 99 g dextran, water up to 1 l) every third day during a 5-week period to achieve a significant iron overload in cardiac tissue. At the end of this treatment, rats were anesthetized with sodium pentobarbital (40 mg/kg) and heparin (1,000 IU/kg) was administered via a femoral vein. Hearts were then removed and rapidly perfused through the aorta according to the technique described by Langendorff [Langendorff, O., Pflügers Arch. 61: 291, 1895] at a constant flow rate of 11 ml/minute. The perfusion fluid was a modified Krebs-Henseleit buffer containing (in mmol/l): NaCl 118, KCl 5.9, NaHCO3 25, MgCl2 1.2, NaH2PO4 0.6, CaCl2 2.4, Glucose […]. pH was maintained at 7.4±0.05 when the perfusion medium was saturated with O2—CO2 (95%-5%) at 37° C. The perfusion apparatus was fully thermostated such that the temperature of the perfusion medium was 37.0±0.5° C. when it reached the aorta. An ultra-thin balloon was inserted in the left ventricle immediately after the initiation of aortic perfusion and was inflated so as to obtain an end-diastolic pressure of 5 mm Hg. A 15 minute stabilization period was initiated immediately following balloon placement. At the end of this period, systolic and diastolic ventricular pressures and heart beat rate (HR) were recorded through a pressure transducer linked to the ventricular balloon. Left Ventricular Developed Pressure (LVDP) was calculated by the difference between systolic and diastolic pressure and the product HR×LVDP was taken as an index of oxygen consumption. Hearts were then subjected to a 15 minute total global normothermic ischemia, followed by 15 minutes of reperfusion with the perfusion medium used initially. During this 15 minute reperfusion, heart rate, and diastolic and systolic pressures were monitored. Early ventricular fibrillations were analyzed 1 min. after the start of the reperfusion.
Three experimental groups were studied.
After the 15 minute reperfusion, 3 hearts in each group were prepared for electron microscopy by perfusion with 2.5% glutaraldehyde. Ultra-thin slices (500-600 Å thickness) were examined.
Mitochondria were classified into Type A (normal), Type B (swollen, unbroken), and Type C (ruptured membranes). Sarcomeres were classified into Type A (normal) and Type B (contacted and/or necrosis). The results are expressed as percentages.

[3] = test system: mice; test: Mouse model for delayed hypersensitivity (oxazolone, ear edema); format: in vivo; conditions: topical, 2.5 micrograms C7 per ear
Protocol: Mice (“Presensitized” and “Presensitized+C7” groups) were presensitized with oxazolone on the abdomen. One group (“Not presensitized”) received only vehicle on the abdomen at this time. After 7 days, each mouse was challenged with the oxazolone hapten on one ear and given vehicle only on the opposite ear. […] The other two groups received an equivalent volume of 90% acetone. Twenty-four hr after challenge, mice were sacrificed and ear edema was assessed by determining the wet weight/dry weight ratio. (Wet weight was determined by weighing the freshly dissected ear and dry weight was determined after lyophilization to a constant weight.)
Mice (“Presensitized” and “Presensitized+C7” groups) were presensitized with oxazolone on the abdomen. One group (“Not presensitized”) received only vehicle on the abdomen at this time. After 7 days, each mouse were challenged with the oxazolone hapten on one ear and given vehicle only on the opposite ear. […] The other two groups received an equivalent volume of 90% acetone. Twenty-four hr after challenge, mice were sacrificed and ear edema was assessed by determining the wet weight/dry weight ratio. (Wet weight was determined by weighing the freshly dissected ear and dry weight was determined after lyophilization to a constant weight.)

[4] = Catalase activity, decomposition of hydrogen peroxide monitored at 240 nm (Example 1); format: biochemical; conditions: Example 1, H2O2 decomposition at 240 nm
Protocol: Catalase activity was measured using a spectrophotometric method in which the decomposition of hydrogen peroxide is monitored at 240 nm according to the method of Aebi et al. (1984) Methods Enzymol. 105: 121, incorporated herein by reference. One unit of catalase activity is defined as the amount of enzyme (or salen-metal complex) required to decompose 1 μmole of hydrogen peroxide in one minute.

[5] = In vitro model for acidosis-induced mucosal injury
[6] = test system: pigs; test: Acute lung injury in endotoxemic pigs; format: in vivo, pig
Protocol: All pigs were pre-treated at T=−18 h with Escherichia coli 0111:B4 LPS (20 μg/kg). Pigs in the RL group (n=4) received no further treatment. […] Lung wet-to-dry weight ratio was determined post-mortem. Lung lipid peroxidation was estimated fluorometrically by measuring thiobarbituric acid reactive products in the lipid fraction of lung parenchymal tissue harvested at T=300 min.

[7] = 1 minute after reperfusion, DMTU 10 mM, C7 50 μM
[8] = 15 minutes after reperfusion, DMTU 10 mM, C7 50 μM
[9] = Before ischemia, DMTU 10 mM, C7 50 μM
[10] = electron microscopy after 15 minute reperfusion
[11] = T = 300 min, C7 10 mg/kg bolus at T=60 min then 10 mg/kg-h after LPS

Structure (SMILES): [Cl][Mn]1[O]c2ccccc2C=NCCN=Cc2ccccc2[O]1 [Compound C7]
- percentage of viable slices following repeated ischemic episodes [1]: 70%
- DP [2, 7]: 5.8 ± 0.5#± mm Hg
- HR [2, 7]: 130 ± 13 beats/min
- HR × LVDP [2, 7]: 9.9 ± 0.8#± ×10.3
- SP [2, 7]: 72 ± 8 mm Hg
- VF, number of hearts exhibiting episodes of ventricular fibrillation [2, 7]: 2/8
- DP [2, 8]: 8.3 ± 0.6 mm Hg
- HR [2, 8]: 241 ± 15 beats/min
- SP [2, 8]: 92 ± 15 mm Hg
- DP [2, 9]: 5.4 ± 0.3 mm Hg
- HR [2, 9]: 278 ± 7 beats/min
- HR × LVDP [2, 9]: 23.5 ± 0.9 ×10.3
- SP [2, 9]: 90 ± 2 mm Hg
- protection of hearts from ischemia/reoxygenation damage ([2]; C7 50 μM): effectively protected hearts
- Mitochondria Type A (normal) [2, 10]: 31.0#± %
- Mitochondria Type C (ruptured membranes) [2, 10]: 53.8#± %
- Sarcomeres Type A (normal) [2, 10]: 60.6#± %
- Sarcomeres Type B (contacted and/or necrosis) [2, 10]: 39.4#± %
- protection, ear edema [3]: protective
- Catalase Activity [4]: 200 units/mM
- protection against acidosis-induced mucosal injury [5]: protective
- % Cdyn, dynamic pulmonary compliance [6, 11]: 78 ± 4%
- MDA, lung malondialdehyde level [6, 11]: 180 ± 27 pmols/mg dry weight
- PaO2, arterial oxygenation [6, 11]: 148 ± 22 mm Hg
- Ppa, mean pulmonary arterial pressure [6, 11]: 25 ± 3 mm Hg
- W/D, lung wet-to-dry weight ratio [6, 11]: 6.4 ± 0.9
- protection against effects of endotoxin ([6]; administered 60 min after onset of endotoxemia): protects against many of the deleterious effects of endotoxin

From patent US7582786B2, “Synthetic catalytic free radical scavengers useful as antioxidants for prevention and therapy of disease” (Eukarion Inc., priority 1996, dated 2009)
